Test system: 4 PI3K isoforms (Human recombinant GST-PI3K)
Assay: PI3K scintillation proximity assay, best IC50 obtained with the four isoforms (alpha, beta, delta, gamma)
Format: biochemical
Details: best IC50 obtained with the four isoforms of PI3K; read-out: Best potency measured on the 4 PI3K isoforms

| Structure (SMILES) | IC50 [µM] |
| --- | --- |
| O=C(c1nn(C2CCCN(CCC3CCOCC3)C2)c2c1CS(=O)(=O)c1c(F)cccc1-2)N1CCOCC1 (stereo not drawn) [Example 280, 6-Fluoro-3-(morpholin-4-ylcarbonyl)-1-{1-[2-(tetrahydro-2H-pyran-4-yl)ethyl]piperidin-3-yl)-1,4-dihydrothiochromeno[4,3-c]pyrazole 5,5-dioxide] | 0.022 |
| O=C(c1nn(C2CCCN(CCN3CCC(F)CC3)C2)c2c1CS(=O)(=O)c1ccccc1-2)N1CCOCC1 (stereo not drawn) [Example 281, 1-{1-[2-(4-Fluoropiperidin-1-yl)ethyl]piperidin-3-yl}-3-(morpholin-4-ylcarbonyl)-1,4-dihydrothiochromeno[4,3-c]pyrazole 5,5-dioxide] | 0.034 |
| O=C(c1nn(C2CCCN(CCN3CCCC(F)(F)C3)C2)c2c1CS(=O)(=O)c1ccccc1-2)N1CCOCC1 (stereo not drawn) [Example 284, 1-{1-[2-(3,3-Difluoropiperidin-1-yl)ethyl]piperidin-3-yl}-3-(morpholin-4-ylcarbonyl)-1,4-dihydrothiochromeno[4,3-c]pyrazole 5,5-dioxide] | 0.083 |
| O=C(c1nn(C2CCN(CCC3CCOCC3)CC2)c2c1CS(=O)(=O)c1ccccc1-2)N1CCOCC1 [Example 285, 3-(morpholin-4-ylcarbonyl)-1-{1-[2-(tetrahydro-2H-pyran-4-yl)ethyl]piperidin-4-yl}-1,4-dihydrothiochromeno[4,3-c]pyrazole 5,5-dioxide] | 0.692 |
| O=C(c1nn(C2CCN(CCn3cccn3)C2)c2c1CS(=O)(=O)c1ccccc1-2)N1CCOCC1 (stereo not drawn) [Example 286, 3-(Morpholin-4-ylcarbonyl)-1-{1-[2-(1H-pyrazol-1-yl)ethyl]pyrrolidin-3-yl}-1,4-dihydrothiochromeno[4,3-c]pyrazole 5,5-dioxide] | 0.257 |
| O=C(CC1CCOCC1)N1CCC(n2nc(C(=O)N3CCOCC3)c3c2-c2ccccc2S(=O)(=O)C3)C1 (stereo not drawn) [Example 287, 3-(Morpholin-4-ylcarbonyl)-1-[1-(tetrahydro-2H-pyran-4-ylacetyl)pyrrolidin-3-yl]-1,4-dihydrothiochromeno[4,3-c]pyrazole 5,5-dioxide] | 0.733 |
| O=C(c1nn(C2CCN(CCn3ccnc3)C2)c2c1CS(=O)(=O)c1ccccc1-2)N1CCOCC1 (stereo not drawn) [Example 288, 1-{1-[2-(1H-Imidazol-1-yl)ethyl]pyrrolidin-3-yl}-3-(morpholin-4-ylcarbonyl)-1,4-dihydrothiochromeno[4,3-c]pyrazole 5,5-dioxide] | 0.166 |
| CC(=O)Nc1nc2c(s1)S(=O)(=O)Cc1c(C(=O)N3CCOCC3)nn(C3CCOCC3)c1-2 [Example 289, N-[3-(Morpholin-4-ylcarbonyl)-5,5-dioxido-1-(tetrahydro-2H-pyran-4-yl)-1,4-dihydropyrazolo[3′,4′:4,5]thiopyrano[3,2-d][1,3]thiazol-7-yl]acetamide] | 0.284 |
| O=C(c1nn(C2CCN(CCN3CCOCC3)CC2)c2c1CS(=O)(=O)c1ccccc1-2)N1CCOCC1 [Example 290, 3-(Morpholin-4-ylcarbonyl)-1-[1-(2-morpholin-4-ylethyl)piperidin-4-yl]-1,4-dihydrothiochromeno[4,3-c]pyrazole 5,5-dioxide] | 0.369 |
| O=C(c1nn(-c2cccc(Cn3ccnc3)c2)c2c1CS(=O)(=O)c1ccccc1-2)N1CCOCC1 [Example 291, 1-[3-(1H-imidazol-1-ylmethyl)phenyl]-3-(morpholin-4-ylcarbonyl)-1,4-dihydrothiochromeno[4,3-c]pyrazole 5,5-dioxide] | 0.673 |
| O=C(c1nn(-c2cccc(Cn3cccn3)c2)c2c1CS(=O)(=O)c1ccccc1-2)N1CCOCC1 [Example 292, 3-(Morpholin-4-ylcarbonyl)-1-[3-(1H-pyrazol-1-ylmethyl)phenyl]-1,4-dihydrothiochromeno[4,3-c]pyrazole 5,5-dioxide] | 0.488 |
| O=C(c1nn(C2CCCN(C3CCOCC3)C2)c2c1CS(=O)(=O)c1ccccc1-2)N1CCOCC1 (stereo not drawn) [Example 293, 3-(Morpholin-4-ylcarbonyl)-1-[1-(tetrahydro-2H-pyran-4-yl)piperidin-3-yl]-1,4-dihydrothiochromeno[4,3-c]pyrazole 5,5-dioxide] | 0.254 |

From US9073940B2, “Tricyclic pyrazol amine derivatives” (MERCK SERONO SA, priority 2009, dated 2015)
